For one data set, the system named is NR1/NR2A. The conditions noted are these: cited from earlier work.
In a further data set the test system is adult ACC neurons. Nature of the data set: LTP induced by theta-burst stimulation (TBS) in ACC slices. Format: cell-based, mouse. The conditions noted are these: 0.3 μM. As for the experimental part: Coronal brain slices ([…]) from 6-8-week-old C57BL/6 mice, containing ACC or hippocampus, were prepared using standard methods (Wei et al., 2001). Slices were transferred to a submerged recovery chamber containing oxygenated (95% O2 and 5% CO2) artificial cerebrospinal fluid (ACSF) (in mM: 124 NaCl, 4.4 KCl, 2 CaCl2, 1 MgSO4, 25 NaHCO3, 1 NaH2PO4, 10 glucose) at room temperature for at least 1 h.
Experiments were performed in a recording chamber on the stage of an Axioskop 2FS microscope with infrared DIC optics for visualizing whole-cell patch clamp recordings. EPSCs were recorded from layer II-III neurons using an Axon 200B amplifier (Axon Instruments, CA) and stimulations were delivered using a bipolar tungsten stimulating electrode placed in layer V of the ACC. In hippocampal slices, EPSCs were evoked by stimulating the Schaffer collateral-commissural pathway. EPSCs were induced by repetitive stimulations at 0.02 Hz and neurons were voltage clamped at −70 mV. The recording pipettes (3-5 MΩ) were filled with solution containing (mM) 145 K-gluconate, 5 NaCl, 1 MgCl2, 0.2 EGTA, 10 HEPES, 2 Mg-ATP, and 0.1 Na3-GTP (adjusted to pH 7.2 with KOH). After obtaining stable EPSCs for 10 min, three kinds of LTP induction paradigms were used within 12 min after establishing the whole-cell configuration to prevent wash out effect on LTP induction (Tsvetkov et al., 2002). The first protocol involved paired presynaptic 80 pulses at 2 Hz with postsynaptic depolarization at +30 mV (referred to as pairing training). The second involved paired 3 presynaptic stimuli that caused 3 EPSPs (10 ms ahead) with 3 postsynaptic APs at 30 Hz, paired 15 times every 5 s (named as EPSPs-APs protocol). The third involved theta-burst stimulation (5 trains of burst with 4 pulses at 100 Hz, at 200 ms interval; repeated 4 times at intervals of 10 s; named as TBS). The NMDAR-mediated component of EPSCs was pharmacologically isolated in Mg^2+-free ACSF containing: CNQX (20 μM), glycine (1 μM) and picrotoxin (100 μM). The patch electrodes contained (in mM) 102 cesium gluconate, 5 TEA-chloride, 3.7 NaCl, 11 BAPTA, 0.2 EGTA, 20 HEPES, 2 MgATP, 0.3 NaGTP, and 5 QX-314 chloride (adjusted to pH 7.2 with CsOH). Neurons were voltage clamped at −60 mV and NMDARs-mediated EPSCs were evoked at 0.05 Hz. Picrotoxin (100 μM) was always present to block GABAA receptor-mediated inhibitory synaptic currents. The access resistance was 15-30 MΩ and was monitored throughout the experiment. Data were discarded if access resistance changed by more than 15% during an experiment. Results are expressed as means±SEM. Statistical comparisons were performed using the Student t-test. […]

A further data set relates to NR2B. As to the kind of experiment: Western blot of NR2B in ACC after siRNA electroporation. Format: in vivo, mouse. The conditions noted are these: four days after electroporation. As to the method:
Equal amounts of protein from the ACC and hippocampus were separated and electrotransferred onto PDVF membranes (Invitrogen), which were probed with anti-NR2A, anti-NR2B (Chemicon), and anti-PSD-95 (ABR) and with β-actin (Sigma) as a loading control. The membranes were incubated with horseradish peroxidase-conjugated secondary antibodies (anti-mouse IgG for PSD-95 and anti-rabbit IgG for the other primary antibodies), and bands were visualized using an ECL system (Perkin Elmer). Synaptosomal membrane fractions (LP1) were prepared as previously described (Dunah and Standaert, 2001) and solubilized using 1% SDS in TEVP buffer: 10 mM Tris-HCl, pH 7.4, 1 mM EDTA, 1 mM EGTA, 1× protease inhibitor cocktail (Sigma), and 1× phosphatase inhibitor cocktail 1 and 2 (Sigma). […] Results are expressed as means±SEM. […]
To inhibit NR2B expression specifically in the prefrontal cortex, including the ACC, siRNA was bilaterally delivered against NR2B with a reporter plasmid encoding EGFP by microelectroporation (Wei et al., 2003) (FIG. 8A). […] The expression levels of other NMDAR subunits (NR2A and NR1) and AMPA receptor subunit GluR1 were measured, and actin was used as a control in the ACCs of NR2B siRNA and control siRNA electroporated mice.

Usually IC50 stands for the concentration at which inhibition is half-maximal. For `C[C@@H](CN1CCC(Cc2ccccc2)CC1)[C@@H](O)c1ccc(O)cc1` [Ro25-6981], the IC50 in the data set with NR1/NR2A was 52 µM. Besides, in the data set on adult ACC neurons, the “LTP after TBS, % of baseline” value was 105.5±8.3%. In addition, the “effect on LTP induced by TBS” value with adult ACC neurons (FIG. 4E) was “blocked”.

Consider “NR2B siRNA: siRNA corresponding to NR2B, sense 5′-GGAUGAGUCCUCCAUGUUCtt-3′, antisense 5′-GAACAUGGAGGACUCAUCCtt-3′, Silencer Pre-designed siRNA ID #61879, Ambion (sense GGAUGAGUCCUCCAUGUUCTT; antisense GAACAUGGAGGACUCAUCCTT; chemistry not given here)”, for which the “NR2B expression compared to control siRNA electroporated control” value in the data set with NR2B was 64.8±4.6%.

These data come from patent US20070161592A1, “Method of treating fear” (priority 2005, published 2007).
